Several values for one entry are separate records, joined by “and”; a condition that tells them apart may be missing. Equal values may be shown once.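 Where inhibition never reached the appropriate level, the endpoint shown equals the highest concentration tested. Otherwise, values were interpolated linearly from a five-concentration, 48-hour dose response in 96-well plates. Abbreviation: GI50, concentration required for 50% inhibition of growth. TGI marks complete inhibition of growth.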 *1 amine or outer side, *2 acyl side, *3 side chain or, on linkers, in order; H or OH if unused. Where a SMILES comes first, the peptide text is derived from it. Bridges are numbered along the chain shown (N, C = ends). [ ]: non-standard residue; d: D form. The star is where a group is joined. X38 = CC[C@H](C)[C@@H](N[*:1])[C@@H](O)CC(=O)[*:2]; NMeY = CN[C@@H](Cc1ccc(O)cc1)C(=O)O; dNMeL = CN[C@H](CC(C)C)C(=O)O; Hiv = CC(C)[C@H](O)C(=O)O; Pyruvoyl = CC(=O)C(=O)*
Key:
Assay in all cases: DTP human tumour cell line panel, 48 h
UO-31 renal = tested on: UO-31 renal
OVCAR-8 ovarian = tested on: OVCAR-8 ovarian
KM12 colon = tested on: KM12 colon
HOP-92 NSCLC = tested on: HOP-92 NSCLC
MALME-3M melanoma = tested on: MALME-3M melanoma
COLO 205 colon = tested on: COLO 205 colon
IGROV1 ovarian = tested on: IGROV1 ovarian
SK-MEL-2 melanoma = tested on: SK-MEL-2 melanoma
HL-60(TB) leukemia = tested on: HL-60(TB) leukemia
RXF 393 renal = tested on: RXF 393 renal

Compound	GI50 (UO-31 renal) [µM]	GI50 (OVCAR-8 ovarian) [µM]	GI50 (KM12 colon) [µM]	GI50 (HOP-92 NSCLC) [µM]	GI50 (MALME-3M melanoma) [µM]	GI50 (COLO 205 colon) [µM]	GI50 (IGROV1 ovarian) [µM]	GI50 (SK-MEL-2 melanoma) [µM]	GI50 (HL-60(TB) leukemia) [µM]	GI50 (RXF 393 renal) [µM]	TGI (RXF 393 renal)	TGI (UO-31 renal) [µM]	TGI (OVCAR-8 ovarian) [µM]	TGI (KM12 colon) [µM]	TGI (HOP-92 NSCLC) [µM]	TGI (MALME-3M melanoma) [µM]	TGI (COLO 205 colon) [µM]	TGI (IGROV1 ovarian) [µM]	TGI (SK-MEL-2 melanoma) [µM]	TGI (HL-60(TB) leukemia) [µM]
COc1cc2cc(C(=O)N3CC(CCl)c4c3cc(NC(=O)C(C)(C)c3ccccc3[N+](=O)[O-])c3ccccc43)[nH]c2c(OC)c1OC (stereo unspecified)	26.2	6.58	48.2	222	103	204	89.6	110	37.1	6.25	5.9 µM and 19.9 µM	–	–	–	–	–	–	–	–	–
COc1ccc(Br)c2c1CC(C(=O)O)CC2 (stereo unspecified)	–	–	–	–	–	–	–	–	–	–	> 100 µM	> 100	> 100	> 100	> 100	> 100	> 100	> 100	> 100	> 100
CC(C)=CCCC1(C)C=Cc2c(c(C)cc3c2[nH]c2cc(O)ccc23)O1 (stereo unspecified)	–	–	–	–	–	–	–	–	–	–	> 25 µM	> 25	> 25	> 25	> 25	> 25	> 25	> 25	> 25	> 25
O=C1c2cc3c(cc2CC12Cc1cc4c(cc1C2=O)CCCC4)CCCC3	–	–	–	–	–	–	–	–	–	–	51.6 µM	> 100	> 100	> 100	50.6	> 100	> 100	> 100	> 100	> 100
CCCCc1ccc(Nc2nc(Cl)c3c(ncn3COCCOC(C)=O)n2)cc1	–	–	–	–	–	–	–	–	–	–	28.4 µM	33.7	33.6	37.5	43.6	36.9	45.5	40.2	39.2	49.9
CC1CC2OC(=O)C3CC(O)CC(=C23)[C@@]12C[C@@H](c1ccoc1)OC2=O (stereo partly specified)	–	–	–	–	–	–	–	–	–	–	> 100 µM	> 100	> 100	> 100	> 100	> 100	> 100	> 100	> 100	> 100
CC[C@H](C)[C@H]1NC(=O)[C@@H](NC(=O)[C@@H](CC(C)C)N(C)C(=O)[C@@H]2CCCN2C(=O)C(C)=O)[C@@H](C)OC(=O)[C@H](Cc2ccc(OC)cc2)N(C)C(=O)[C@@H]2CCCN2C(=O)[C@H](CC(C)C)NC(=O)[C@H](C(C)C)OC(=O)C[C@@H]1O (Pyruvoyl-P[dNMeL]T[X38][Hiv]LP[NMeY](Me); ester 3-C)	–	–	–	–	–	–	–	–	–	–	0.0122 µM	0.137	0.342	0.151	0.374	0.107	0.00621	1.19	0.0255	0.187
Cc1nc2sc(CCl)nn2c(=O)c1Cl	–	–	–	–	–	–	–	–	–	–	11 µM	27.6	31.4	25.2	18.7	24.9	32.2	34.8	27.7	29.8
CSc1nc2ccccc2c(=O)n1/N=C1\C(=O)N(CN2CCCCC2)c2ccc(Cl)cc21	–	–	–	–	–	–	–	–	–	–	33.4 µM	> 100	> 100	> 100	> 100	> 100	36	75.1	54.6	50.1
COc1ccc2c(c1)CC[C@@H]1[C@@H]2CC[C@]2(C)C(=O)C3(CCCCC3)C[C@@H]12	> 100	> 100	> 100	> 100	> 100	> 100	> 100	> 100	> 100	> 100	> 100 µM	> 100	> 100	> 100	> 100	> 100	> 100	> 100	> 100	> 100
O=C1C/C(=C/c2ccc(/C=C3/CC(=O)N(c4cccc(Br)c4)C3=O)cc2)C(=O)N1c1cccc(Br)c1	–	–	–	–	–	–	–	–	–	–	93.4 µM	> 100	> 100	> 100	> 100	> 100	> 100	> 100	> 100	> 100
Oc1ccccc1/C=N/Nc1nnc2c3ccccc3c3ccccc3c2n1	–	–	–	–	–	–	–	–	–	–	> 100 µM	> 100	> 100	> 100	> 100	> 100	> 100	> 100	> 100	> 100
NC(=O)C(Nc1c(Cl)cccc1Cl)c1cc2cc(Br)ccc2nc1Cl (stereo unspecified)	–	–	–	–	–	–	–	–	–	–	> 100 µM	> 100	> 100	> 100	> 100	> 100	> 100	> 100	> 100	> 100
COc1ccccc1C1CC(=O)CC(c2ccccc2OC)C12C(=O)NC(=S)NC2=O (stereo unspecified)	–	–	–	–	–	–	–	–	–	–	> 100 µM	> 100	> 100	> 100	> 100	> 100	> 100	> 100	> 100	69.5
CCCCCC(=O)Nc1n[nH]nc1C(N)=O	–	–	–	–	–	–	–	–	–	–	> 100 µM	> 100	> 100	> 100	> 100	> 100	> 100	> 100	> 100	> 100
COc1cc(OCc2ccc3nc(-c4ccccc4)c(N)nc3c2)cc(OC)c1OC	–	–	–	–	–	–	–	–	–	–	77 µM	34.6	72.3	36.7	50	32.4	30.1	55.9	43.9	32.4
